Assay results taken from ChEMBL document CHEMBL1201862, “PubChem BioAssay data set” (2004).
Active and inactive are the calls of the source.

Legend:
Fatty acid synthase [1] = target: T1, Fatty acid synthase (Homo sapiens, UniProt P49327); test: FAS thioesterase domain inhibitors, dose response, biochemical, endpoint fluorescence intensity, uHTS hits (AID 624327); format: functional;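 further: fluorescence from hydrolysis of an O-methyl fluorescein acyl ester substrate by the enzyme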
Fatty acid synthase [2] = target: T1, Fatty acid synthase; test: FAS thioesterase domain inhibitors, dose response, biochemical, kinetic fluorescence intensity (AID 624326); format: functional;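 further: rate of fluorescence rise from hydrolysis of a fluorogenic O-methyl fluorescein ester substrate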
[3] = Luminescence Cell-Based Dose Response HTS to Identify Activators of Luciferase Translation or Activity in H4 […] Cells. [Related pubchem assays: 1829 (Project Summary), 1814 (Primary HTS)]; format: functional
H4 = test: Luminescence Cell-Based Dose Response HTS to Identify Activators of 5'UTR Stem-Loop Driven Prion Protein mRNA Translation in H4 Neuroglioblastoma Cells. [Related pubchem assays: 1829 (Project Summary), 1814 (Primary HTS)]; format: functional; details: Homo sapiens
[4] = Luminescence Cell-Based Dose Confirmation HTS to Identify Activators of 5'UTR Stem-Loop Driven Alpha-Synuclein mRNA Translation in H4 Neuroglioblastoma Cells. [Related pubchem assays: 1829 (Project Summary), 1814 (Primary HTS)]; format: functional
[5] = target: T2, Corticotropin-releasing factor receptor 2/Corticotropin-releasing factor-binding protein (Homo sapiens, UniProt P24387+Q13324); test: Dose Response confirmation of uHTS hits for small molecule antagonists of the CRF-binding protein and CRF-R2 receptor complex.; format: functional; details: read-out: IC50_Mean
T2 sequence (Q13324 whole entry): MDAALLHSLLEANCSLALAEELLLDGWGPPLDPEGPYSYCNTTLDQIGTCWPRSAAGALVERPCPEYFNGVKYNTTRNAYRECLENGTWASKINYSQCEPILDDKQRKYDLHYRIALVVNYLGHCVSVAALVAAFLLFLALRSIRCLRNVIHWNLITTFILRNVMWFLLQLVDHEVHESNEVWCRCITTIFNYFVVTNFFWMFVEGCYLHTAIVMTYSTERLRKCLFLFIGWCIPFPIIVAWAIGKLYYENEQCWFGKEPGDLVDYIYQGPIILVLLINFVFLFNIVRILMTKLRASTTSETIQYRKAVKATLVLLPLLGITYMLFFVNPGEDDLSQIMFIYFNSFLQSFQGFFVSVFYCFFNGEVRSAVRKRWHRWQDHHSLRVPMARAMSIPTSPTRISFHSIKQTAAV
T2 sequence (P24387 whole entry): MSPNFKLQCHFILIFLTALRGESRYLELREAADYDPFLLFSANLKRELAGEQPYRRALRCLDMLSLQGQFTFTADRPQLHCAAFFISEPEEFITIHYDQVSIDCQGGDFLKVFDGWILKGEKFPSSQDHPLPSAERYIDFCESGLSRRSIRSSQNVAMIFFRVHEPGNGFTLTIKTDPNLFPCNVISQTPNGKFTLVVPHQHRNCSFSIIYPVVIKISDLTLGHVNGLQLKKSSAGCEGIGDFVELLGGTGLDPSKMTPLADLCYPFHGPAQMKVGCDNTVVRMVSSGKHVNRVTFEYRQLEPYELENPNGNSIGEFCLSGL

[6] = target: T2, Corticotropin-releasing factor receptor 2/Corticotropin-releasing factor-binding protein; test: activators of CRF receptor 2 with binding protein – uHTS hits, confirmation (AID 602473); format: functional; details: read-out: EC50_Mean
Cytochrome P450 1A2 = target: T3, Cytochrome P450 1A2 (Homo sapiens, UniProt P05177);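 further: PubChem cytochrome P450 panel assay, CYP1A2 panel member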
T3 sequence (P05177 whole entry): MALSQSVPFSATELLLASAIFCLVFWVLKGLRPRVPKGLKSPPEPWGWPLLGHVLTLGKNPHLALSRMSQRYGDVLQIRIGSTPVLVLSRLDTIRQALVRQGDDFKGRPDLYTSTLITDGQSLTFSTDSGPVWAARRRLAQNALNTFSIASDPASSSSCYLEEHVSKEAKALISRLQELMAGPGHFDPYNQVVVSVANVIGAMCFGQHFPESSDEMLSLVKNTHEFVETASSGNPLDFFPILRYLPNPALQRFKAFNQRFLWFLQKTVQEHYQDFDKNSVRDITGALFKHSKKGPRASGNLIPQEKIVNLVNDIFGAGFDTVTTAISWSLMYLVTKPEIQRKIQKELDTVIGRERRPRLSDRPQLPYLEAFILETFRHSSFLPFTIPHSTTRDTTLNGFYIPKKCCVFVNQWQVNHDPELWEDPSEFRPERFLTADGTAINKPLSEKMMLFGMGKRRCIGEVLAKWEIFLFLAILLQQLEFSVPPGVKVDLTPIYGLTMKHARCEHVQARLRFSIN

Cytochrome P450 2C19 = Cytochrome P450 2C19 (Homo sapiens, UniProt P33261); test: Cytochrome panel assay with activity outcomes. Panel member name: p450-cyp2c19 Compounds with AC50 equal or less than 10 uM are considered active; format: functional
Chain of Cytochrome P450 2C19 (P33261 whole entry): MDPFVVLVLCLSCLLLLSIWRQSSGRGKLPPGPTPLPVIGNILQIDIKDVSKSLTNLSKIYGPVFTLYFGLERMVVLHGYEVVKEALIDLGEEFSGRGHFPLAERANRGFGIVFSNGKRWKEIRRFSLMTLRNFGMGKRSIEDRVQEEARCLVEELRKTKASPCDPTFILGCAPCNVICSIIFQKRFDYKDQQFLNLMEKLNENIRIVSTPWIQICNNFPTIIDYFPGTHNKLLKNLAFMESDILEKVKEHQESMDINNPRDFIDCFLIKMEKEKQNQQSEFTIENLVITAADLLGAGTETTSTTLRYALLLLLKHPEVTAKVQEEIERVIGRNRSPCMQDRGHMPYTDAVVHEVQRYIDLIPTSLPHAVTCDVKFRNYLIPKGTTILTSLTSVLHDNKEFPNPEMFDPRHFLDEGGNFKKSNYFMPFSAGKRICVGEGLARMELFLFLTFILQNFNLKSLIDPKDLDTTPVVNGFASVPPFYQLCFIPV

INS1 = test: beta cell apoptosis inhibitors, cytokine rescue, dose response, luminescence, retest (AID 449756); format: functional, cell-based; details: Rattus norvegicus;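 further: cell death triggered by IL-1 beta plus TNF-alpha plus IFN-gamma mixture; protective hits raise ATP signal compared with cytokine alone wells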
Nonstructural protein 1 = Nonstructural protein 1 (Influenza A virus, UniProt Q194T2); format: functional, Influenza A virus (A/California/07/2009(H1N1))
Chain of Nonstructural protein 1 (Q194T2 whole entry): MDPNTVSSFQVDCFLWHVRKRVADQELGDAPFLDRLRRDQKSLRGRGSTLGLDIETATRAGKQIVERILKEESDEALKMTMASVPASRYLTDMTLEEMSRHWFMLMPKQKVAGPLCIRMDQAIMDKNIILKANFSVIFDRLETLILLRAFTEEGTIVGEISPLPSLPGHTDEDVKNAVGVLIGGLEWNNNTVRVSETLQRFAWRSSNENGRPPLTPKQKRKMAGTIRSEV

[7] = Luminescence Cell-Based Dose Retest to Confirm Inhibitors of Cancer Stem Cells. [Related pubchem assays (depositor defined):AID2717, AID2721]; format: functional; details: Homo sapiens
[8] = target: Luciferin 4-monooxygenase (Photinus pyralis, UniProt P08659); test: firefly luciferase enzyme inhibitors, dose response, biochemical, luminescence (AID 1891)
Chain of Luciferin 4-monooxygenase (P08659 whole entry): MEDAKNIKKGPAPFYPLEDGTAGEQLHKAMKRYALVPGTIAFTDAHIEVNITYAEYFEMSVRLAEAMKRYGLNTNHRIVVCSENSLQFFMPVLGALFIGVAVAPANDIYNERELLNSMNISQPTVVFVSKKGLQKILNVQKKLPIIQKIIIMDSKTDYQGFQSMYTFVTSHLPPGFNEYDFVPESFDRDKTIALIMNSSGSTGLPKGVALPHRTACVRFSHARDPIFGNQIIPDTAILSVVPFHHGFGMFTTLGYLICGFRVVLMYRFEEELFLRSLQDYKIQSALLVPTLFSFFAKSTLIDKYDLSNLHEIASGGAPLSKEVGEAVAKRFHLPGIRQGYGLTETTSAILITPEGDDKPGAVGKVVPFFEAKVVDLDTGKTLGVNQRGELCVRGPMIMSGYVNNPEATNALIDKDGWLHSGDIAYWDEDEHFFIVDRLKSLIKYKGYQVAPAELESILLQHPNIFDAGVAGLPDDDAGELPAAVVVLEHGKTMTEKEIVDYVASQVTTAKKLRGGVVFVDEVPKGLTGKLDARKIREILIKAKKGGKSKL

[9] = Luminescence Cell-Based Dose Confirmation HTS to Identify Inhibitors of Platelet Dense Granule Release. [Related pubchem assays: 1663 (Primary HTS), 1678 (Summary of Project)]; format: functional
cells [10] = format: functional, cell-based
cells [11] = format: functional, cell-based; remark: listed apart in the source
[12] = HEp-2 cell cytotoxicity, dose response, cytotoxicity control for RSV inhibitor project, HTS (AID 2410); format: functional; details: human respiratory syncytial virus
[13] = target: T4, Heat shock factor protein 1 (Mus musculus, UniProt P38532); test: inhibition of MG132-induced HSE-luciferase signal, confirmation, cell-based, NIH3T3, luminescence, dose retest (AID 2382); format: functional;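 further: NIH3T3 fibroblasts with HSF1-driven luciferase reporter stressed by proteasome inhibitor MG132; luminescence from HSF1-driven luciferase expression after 8 hours of MG132 stress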
T4 sequence (P38532 whole entry): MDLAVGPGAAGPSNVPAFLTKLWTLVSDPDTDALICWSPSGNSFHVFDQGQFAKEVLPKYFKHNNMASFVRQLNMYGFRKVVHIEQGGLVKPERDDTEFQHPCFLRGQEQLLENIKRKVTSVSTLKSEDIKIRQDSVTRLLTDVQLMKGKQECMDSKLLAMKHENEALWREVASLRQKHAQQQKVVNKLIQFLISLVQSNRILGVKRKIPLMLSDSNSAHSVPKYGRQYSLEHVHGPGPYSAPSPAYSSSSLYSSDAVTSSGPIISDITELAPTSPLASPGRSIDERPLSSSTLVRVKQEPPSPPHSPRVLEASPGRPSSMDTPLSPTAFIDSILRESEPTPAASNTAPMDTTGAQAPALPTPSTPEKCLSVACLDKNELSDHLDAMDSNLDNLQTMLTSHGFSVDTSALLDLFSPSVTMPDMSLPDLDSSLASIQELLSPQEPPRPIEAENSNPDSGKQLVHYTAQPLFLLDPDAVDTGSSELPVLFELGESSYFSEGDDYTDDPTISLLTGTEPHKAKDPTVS

T1 sequence (P49327 whole entry, the tested form may be a part): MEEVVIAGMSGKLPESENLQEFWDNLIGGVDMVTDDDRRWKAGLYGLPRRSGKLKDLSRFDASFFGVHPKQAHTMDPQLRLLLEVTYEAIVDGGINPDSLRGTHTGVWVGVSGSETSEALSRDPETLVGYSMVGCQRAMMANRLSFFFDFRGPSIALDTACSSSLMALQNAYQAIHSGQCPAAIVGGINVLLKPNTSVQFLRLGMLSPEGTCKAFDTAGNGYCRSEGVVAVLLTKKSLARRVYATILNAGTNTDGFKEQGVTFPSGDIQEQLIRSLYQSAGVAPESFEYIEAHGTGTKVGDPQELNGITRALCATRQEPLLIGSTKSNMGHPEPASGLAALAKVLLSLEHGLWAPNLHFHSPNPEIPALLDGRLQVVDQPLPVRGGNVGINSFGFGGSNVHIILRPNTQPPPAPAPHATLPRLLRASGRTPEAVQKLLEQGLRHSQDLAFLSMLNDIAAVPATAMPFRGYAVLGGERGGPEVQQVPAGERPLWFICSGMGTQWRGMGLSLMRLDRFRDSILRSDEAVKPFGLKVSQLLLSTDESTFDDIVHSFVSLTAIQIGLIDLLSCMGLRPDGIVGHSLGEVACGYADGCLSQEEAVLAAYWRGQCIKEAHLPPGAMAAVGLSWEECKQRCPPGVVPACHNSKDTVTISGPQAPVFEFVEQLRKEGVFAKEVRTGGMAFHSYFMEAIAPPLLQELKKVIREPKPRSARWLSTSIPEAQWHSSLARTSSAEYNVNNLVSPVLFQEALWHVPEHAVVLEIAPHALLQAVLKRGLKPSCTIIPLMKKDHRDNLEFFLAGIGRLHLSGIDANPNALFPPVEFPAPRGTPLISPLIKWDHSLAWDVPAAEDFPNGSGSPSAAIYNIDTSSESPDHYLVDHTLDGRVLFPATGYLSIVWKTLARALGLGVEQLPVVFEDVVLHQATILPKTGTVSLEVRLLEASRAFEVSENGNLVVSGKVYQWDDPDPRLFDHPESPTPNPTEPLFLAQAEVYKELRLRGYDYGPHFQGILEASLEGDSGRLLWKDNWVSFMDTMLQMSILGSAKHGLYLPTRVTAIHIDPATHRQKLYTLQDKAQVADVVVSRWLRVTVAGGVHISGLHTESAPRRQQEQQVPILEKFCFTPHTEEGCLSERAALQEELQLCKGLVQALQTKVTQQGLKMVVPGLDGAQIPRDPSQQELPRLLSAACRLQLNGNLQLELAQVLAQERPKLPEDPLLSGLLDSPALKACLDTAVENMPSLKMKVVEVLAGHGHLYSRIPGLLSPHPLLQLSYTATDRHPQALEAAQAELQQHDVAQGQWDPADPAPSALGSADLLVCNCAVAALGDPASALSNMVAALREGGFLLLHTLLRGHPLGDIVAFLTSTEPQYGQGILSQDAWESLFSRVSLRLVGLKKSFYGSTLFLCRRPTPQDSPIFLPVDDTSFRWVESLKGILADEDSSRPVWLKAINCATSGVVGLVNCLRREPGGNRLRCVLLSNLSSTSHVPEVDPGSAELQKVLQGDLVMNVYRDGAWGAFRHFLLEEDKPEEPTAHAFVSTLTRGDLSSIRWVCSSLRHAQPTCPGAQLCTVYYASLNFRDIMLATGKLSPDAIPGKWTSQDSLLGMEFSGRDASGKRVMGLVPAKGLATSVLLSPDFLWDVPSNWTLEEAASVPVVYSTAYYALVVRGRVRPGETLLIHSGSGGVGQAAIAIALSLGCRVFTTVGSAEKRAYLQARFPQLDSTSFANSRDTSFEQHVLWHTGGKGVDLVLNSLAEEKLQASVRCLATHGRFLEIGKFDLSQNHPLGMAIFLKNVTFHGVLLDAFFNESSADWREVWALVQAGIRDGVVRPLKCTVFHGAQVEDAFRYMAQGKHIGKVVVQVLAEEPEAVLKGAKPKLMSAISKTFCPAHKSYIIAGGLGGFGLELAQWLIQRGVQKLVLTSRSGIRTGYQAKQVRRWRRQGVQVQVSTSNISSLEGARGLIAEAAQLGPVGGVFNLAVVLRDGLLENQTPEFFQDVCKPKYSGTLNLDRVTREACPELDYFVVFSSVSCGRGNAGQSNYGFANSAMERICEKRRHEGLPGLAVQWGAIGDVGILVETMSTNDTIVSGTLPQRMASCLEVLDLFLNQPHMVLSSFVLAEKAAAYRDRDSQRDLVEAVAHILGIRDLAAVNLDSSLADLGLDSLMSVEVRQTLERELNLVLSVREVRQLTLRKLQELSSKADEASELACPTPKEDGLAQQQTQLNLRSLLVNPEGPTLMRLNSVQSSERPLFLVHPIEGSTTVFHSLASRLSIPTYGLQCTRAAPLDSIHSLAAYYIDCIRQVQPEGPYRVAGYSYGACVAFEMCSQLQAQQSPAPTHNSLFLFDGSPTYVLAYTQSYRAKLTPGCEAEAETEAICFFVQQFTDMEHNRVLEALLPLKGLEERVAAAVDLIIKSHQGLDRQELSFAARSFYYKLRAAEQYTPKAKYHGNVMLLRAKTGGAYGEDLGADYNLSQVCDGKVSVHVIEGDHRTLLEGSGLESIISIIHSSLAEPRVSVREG

## CCCCN(C=O)c1c(CC)nc2c(OCc3ccc(Cl)cc3Cl)cccn12
Fatty acid synthase [1]
  IC50: 6.01 µM (active)
Fatty acid synthase [2]
  IC50: 8.19 µM (active)

## Cn1sc(NC(=O)c2cccc(Cl)c2)nc1=O
[3]
  EC50: 7.11 µM (active)
H4
  EC50: > 120 µM (not active)
[4]
  EC50: 12.8 µM (active)

## CCn1cc(C(=O)NCc2ccco2)c(=O)c2cc(S(=O)(=O)N3CCC(C)CC3)ccc21
Fatty acid synthase [1]
  IC50: 2.6 µM (active)
Fatty acid synthase [2]
  IC50: 3.21 µM (active)

## CCOc1ccc2[nH]c(SCC3CC3(Cl)Cl)nc2c1 (stereo unspecified)
[3]
  EC50: 29.7 µM (active)
H4
  EC50: 30.2 µM (active)
[4]
  EC50: 0.506 µM (active)

## CCc1ccc(NC(=O)CSc2nc(N)c(NC(=O)c3ccc(F)c(F)c3)c(O)n2)cc1
[5]
  IC50: > 47.1 µM (inactive)
[6]
  EC50: > 53 µM (inactive)

## Cc1nc(S(=O)(=O)N2CCOCC2)c(C#N)c(C)c1Cl
Cytochrome P450 1A2
  AC50: 1 µM (inconclusive)
[3]
  EC50: 55.7 µM (active)
H4
  EC50: > 120 µM (not active)
Cytochrome P450 2C19
  AC50: inconclusive
[4]
  EC50: 10.7 µM (active)

## CCCc1cc(O)nc(SCC(=O)N(CCC#N)c2ccc3c(c2)OCCO3)n1
[5]
  IC50: > 47.1 µM (inactive)
[6]
  EC50: > 53 µM (inactive)

## CCNc1ccc(S(=O)(=O)N(C)C)cc1NCC(=O)Nc1ccc(F)c(Cl)c1
Fatty acid synthase [1]
  IC50: 12.4 µM (active)
Fatty acid synthase [2]
  IC50: 18.2 µM (active)

## CCCCOc1ccc2c(c1)/C(=C(\C(Cl)=C(Cl)Cl)[N+](=O)[O-])N2
[5]
  IC50: > 47.1 µM (inactive)
[6]
  EC50: 37.9 µM (active)

## O=C(COc1ccc(Br)cc1)N1CCN(Cc2c[nH]c3ccccc23)CC1
INS1
  AC50: 3.34 µM (active)

## CN(C)c1ccc(C=C2C=CC=C2)cc1
Nonstructural protein 1
  IC50: 31.5 µM (active)

## CCOC(=O)c1c(NC(=O)/C=C/c2ccc3c(c2)OCO3)sc(C)c1CC
Cytochrome P450 1A2
  AC50: 12.6 µM (inconclusive)
[7]
  AC50: 1.04 µM (active)
[8]
  EC50: > 112 µM (not active)
[9]
  EC50: > 112 µM (not active)

## O=C(COC(=O)c1cc(F)c(F)cc1Cl)NC1CCCCCC1
Fatty acid synthase [1]
  IC50: 13.1 µM (active)
Fatty acid synthase [2]
  IC50: 6.86 µM (active)

## COc1cccc(C=NNC(=O)C[n+]2ccccc2)c1O
Nonstructural protein 1
  IC50: 10.4 µM (active)

## [O-][n+]1cc(-c2cc3ccccc3o2)[n+]([O-])c2c1CCCC2
[3]
  EC50: 8.68 µM (active)
H4
  EC50: 2.05 µM (active)
[4]
  EC50: > 60 µM (not active)

## C[C@]12CCC(=O)C=C1CC[C@@H]1[C@@H]2[C@@H](O)C[C@]2(C=O)[C@@H](C(=O)CO)CC[C@@H]12 [ALDOSTERONE]
[3]
  EC50: > 120 µM (not active)
H4
  EC50: > 120 µM (not active)
[4]
  EC50: > 120 µM (not active)

## O=C(N/N=C/c1c(O)ccc2ccccc12)c1ccc(CO)nc1
Cells [10]
  EC50: 10.8 µM (active)
Cells [11]
  EC50: > 350 µM (not active)
Nonstructural protein 1
  IC50: 10.6 µM (active)

## CC(C)(C)c1ccc(COC(=O)CN2C(=O)NC3(CCCC3)C2=O)cc1
Fatty acid synthase [1]
  IC50: 4.84 µM (active)
Fatty acid synthase [2]
  IC50: 5.17 µM (active)

## Cc1ccc(C(=O)Nc2ccnc(-c3cccnc3)n2)cc1
[3]
  EC50: 16.1 µM (active)
H4
  EC50: 15.4 µM (active)
[4]
  EC50: 13.3 µM (active)

## Cc1c([N+](=O)[O-])cc(S(=O)(=O)Nc2ccc(-c3ccc(N4CCCC4)nn3)cc2)cc1[N+](=O)[O-]
[12]
  CC50: > 50 µM (active)
Fatty acid synthase [1]
  IC50: 0.867 µM (active)
Fatty acid synthase [2]
  IC50: 0.524 µM (active)

## Cc1cccn2c(=O)c(/C=C(\C#N)C(N)=O)c(N3CCN(c4cccc(Cl)c4)CC3)nc12
Nonstructural protein 1
  IC50: > 100 µM (active)

## COc1ccc(-c2c(C#Cc3ccccc3)c3ccccc3n2C)cc1
[3]
  EC50: 22.1 µM (active)
[12]
  CC50: 44 µM (active)
H4
  EC50: 43.1 µM (active)
[4]
  EC50: 19.6 µM (active)

## O=C(CN1CC(=O)Oc2ccccc21)OCC(=O)c1ccccc1
Nonstructural protein 1
  IC50: 1.47 µM (active)

## COc1ccc(/C=C/C(=O)NC(=S)Nc2ccc(S(=O)(=O)Nc3cc(OC)ncn3)cc2)cc1
[5]
  IC50: > 47.1 µM (inactive)
[6]
  EC50: > 53 µM (inactive)

## Cc1cc(/C(O)=C(/C([S-])=Nc2ccc(F)cc2)[n+]2ccccc2)c(C)n1-c1ccc(F)cc1
[3]
  EC50: 16.1 µM (active)
H4
  EC50: 21.1 µM (active)
[4]
  EC50: > 120 µM (not active)

## Cn1c(=O)c2cc3ccc(Cl)cc3nc2n(C)c1=O
[5]
  IC50: > 47.1 µM (inactive)
[6]
  EC50: > 53 µM (inactive)

## O=C(COC(=O)c1ccccc1-n1cnnn1)c1ccc(F)cc1
[3]
  EC50: 7.61 µM (active)
[13]
  EC50: 50.2 µM (active)
H4
  EC50: 31.3 µM (active)
[4]
  EC50: 4.44 µM (active)

## CCOc1ccc(CNC(=O)CCC(=O)N2Cc3cccc(OC)c3Oc3ncccc32)cc1
[5]
  IC50: > 47.1 µM (inactive)
[6]
  EC50: > 53 µM (inactive)

## O=C(CSc1cn(Cc2ccccc2)c2ccccc12)N1CCOCC1
[3]
  EC50: 19.8 µM (active)
H4
  EC50: 16.8 µM (active)
[4]
  EC50: 20.9 µM (active)
